From patent US20050186172A1, “Cosmetic composition capable of fighting against skin aging” (Laboratoires Clarins, a corporation of France, priority 2002, published 2005)

Test system: glycation cross-linking between bovine albumin and glucose
Assay: Anti-glycation activity: fluorescence of bovine albumin-glucose adduct (AGE) after incubation
Assay type: biochemical
Conditions: 10 mM, 8 days 37° C.
Experimental: The effect of the extract of Diospyros kaki was studied in vitro on a model based on the measurement of the formation of the derivatives of the glycation reaction between lysine and glucose 6-phosphate. Certain of these derivatives (AGE) are fluorescent. The reaction was measured after […] of incubation.
A reference molecule was tested in parallel: aminoguanidine.
The test system is the reaction mixture containing bovine albumin ([…]) and glucose (500 mM) in a phosphate buffer (0.2 M, pH=7.4.).
The products were mixed with the test system in sterile tubes; the tubes were covered with aluminum foil (the reaction must take place shielded from light).
For the experimental conditions in which certain reagents or products are not present, the volume of the QSP tube should be completed with MilliQ water.
After having sealed the openings of the tubes with parafilm (the reaction must take place without oxygen), the different reaction media were placed in a dry oven at 37° C. for 8 days.
After 8 days of incubation, 100 μl was collected from each tube and transferred to a 96-well black plate.
The fluorescence was then read using FLUOstar (BMG) (excitation at 355 nm, emission at 460 nm). The results are expressed in arbitrary fluorescence units.
The relative fluorescence for the “product+bovine albumin” (=interference) is to be subtracted from the “product+bovine albumin+glucose” data.
After 8 days of incubation of bovine albumin with an overcharge of glucose, the formation of glycation cross-linking was seen. It was evaluated by taking advantage of the fluorescence properties of the bovine albumin-glucose adduct.

In the case of `N=C(N)NN` [Aminoguanidine, aminoguanidine], the “% inhibition of the glycation” value (BSA + glucose) is reported as 100%, the Intensity of fluorescence (BSA + glucose, ex 355 nm / em 460 nm) is reported as 13,011.5 arbitrary units and the “Intensity of real fluorescence” value (interference subtracted) is reported as 0 arbitrary units.
